Reference: PubChem BioAssay (NCI)
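All cell lines were grown in 96-well plates and treated with compound for 48 hours. GI50 is the concentration that inhibits growth by half. Definition used: TGI = concentration required for complete inhibition of growth.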

Experiments:
Assay in all cases: NCI anticancer screen, dose series, 48 h
IGROV1 ovarian = system: IGROV1 ovarian
ACHN renal = system: ACHN renal
SK-MEL-28 melanoma = system: SK-MEL-28 melanoma
SK-MEL-2 melanoma = system: SK-MEL-2 melanoma
SF-268 CNS = system: SF-268 CNS
A549 NSCLC = system: A549 NSCLC
CCRF-CEM leukemia = system: CCRF-CEM leukemia
SF-539 CNS = system: SF-539 CNS
T-47D breast = system: T-47D breast
A498 renal = system: A498 renal
SF-295 CNS = system: SF-295 CNS
SNB-19 CNS = system: SNB-19 CNS
SK-MEL-5 melanoma = system: SK-MEL-5 melanoma
UACC-257 melanoma = system: UACC-257 melanoma
LOX IMVI melanoma = system: LOX IMVI melanoma
EKVX NSCLC = system: EKVX NSCLC
MDA-MB-231 breast = system: MDA-MB-231 breast
COLO 205 colon = system: COLO 205 colon
HCT-15 colon = system: HCT-15 colon
NCI-H522 lung = system: NCI-H522 lung
UO-31 renal = system: UO-31 renal
OVCAR-5 ovarian = system: OVCAR-5 ovarian
MDA-MB-435 = system: MDA-MB-435
HOP-92 NSCLC = system: HOP-92 NSCLC
OVCAR-3 ovarian = system: OVCAR-3 ovarian
HCC-2998 colon = system: HCC-2998 colon
DU-145 prostate = system: DU-145 prostate
UACC-62 melanoma = system: UACC-62 melanoma
K-562 leukemia = system: K-562 leukemia
RXF 393 renal = system: RXF 393 renal
NCI/ADR-RES ovarian = system: NCI/ADR-RES ovarian
OVCAR-4 ovarian = system: OVCAR-4 ovarian
NCI-H226 lung = system: NCI-H226 lung
M14 melanoma = system: M14 melanoma
HT29 colon = system: HT29 colon
MOLT-4 leukemia = system: MOLT-4 leukemia
TK-10 renal = system: TK-10 renal
NCI-H23 lung = system: NCI-H23 lung
786-0 renal = system: 786-0 renal
CAKI-1 renal = system: CAKI-1 renal
KM12 colon = system: KM12 colon
SN12C renal = system: SN12C renal
NCI-H460 lung = system: NCI-H460 lung
SK-OV-3 ovarian = system: SK-OV-3 ovarian
PC-3 prostate = system: PC-3 prostate
OVCAR-8 ovarian = system: OVCAR-8 ovarian
BT-549 breast = system: BT-549 breast
SNB-75 CNS = system: SNB-75 CNS
MALME-3M melanoma = system: MALME-3M melanoma
MCF7 breast = system: MCF7 breast
U251 CNS = system: U251 CNS
HOP-62 NSCLC = system: HOP-62 NSCLC
HS 578T breast = system: HS 578T breast
HCT-116 colon = system: HCT-116 colon
HL-60(TB) leukemia = system: HL-60(TB) leukemia
RPMI-8226 leukemia = system: RPMI-8226 leukemia
SW-620 colon = system: SW-620 colon

COc1cc2c3c(n(CCCNCCNCCN)c(=O)c2cc1OC)-c1cc2c(cc1C3=O)OCO2
GI50 (IGROV1 ovarian): 5.21 µM
TGI (IGROV1 ovarian): > 100 µM
GI50 (ACHN renal): 3.3 µM
TGI (ACHN renal): > 53.2 µM
GI50 (SK-MEL-28 melanoma): 4.65 µM
TGI (SK-MEL-28 melanoma): > 39.1 µM
GI50 (SK-MEL-2 melanoma): 6.94 µM
TGI (SK-MEL-2 melanoma): 17.4 µM
GI50 (SF-268 CNS): 1.72 µM
TGI (SF-268 CNS): 21.7 µM
GI50 (A549 NSCLC): 3.55 µM
TGI (A549 NSCLC): 62.2 µM
GI50 (CCRF-CEM leukemia): 0.0835 µM
TGI (CCRF-CEM leukemia): 1.58 µM
GI50 (SF-539 CNS): 0.551 µM
TGI (SF-539 CNS): 3.21 µM
GI50 (T-47D breast): 2.99 µM
TGI (T-47D breast): > 100 µM
GI50 (A498 renal): 19.1 µM
TGI (A498 renal): 39.6 µM
GI50 (SF-295 CNS): 0.522 µM
TGI (SF-295 CNS): 11.4 µM
GI50 (SNB-19 CNS): 2.12 µM
TGI (SNB-19 CNS): > 100 µM
GI50 (SK-MEL-5 melanoma): 1.99 µM
TGI (SK-MEL-5 melanoma): 9.5 µM
GI50 (UACC-257 melanoma): 15.2 µM
TGI (UACC-257 melanoma): 35.9 µM
GI50 (LOX IMVI melanoma): 2.67 µM
TGI (LOX IMVI melanoma): 18.3 µM
GI50 (EKVX NSCLC): 1.68 µM
TGI (EKVX NSCLC): 8.1 µM
GI50 (MDA-MB-231 breast): 0.904 µM
TGI (MDA-MB-231 breast): 6.97 µM
GI50 (COLO 205 colon): 2.58 µM
TGI (COLO 205 colon): > 100 µM
GI50 (HCT-15 colon): 11.9 µM
TGI (HCT-15 colon): > 100 µM
GI50 (NCI-H522 lung): 2.85 µM
TGI (NCI-H522 lung): > 24.3 µM
GI50 (UO-31 renal): 47.8 µM
TGI (UO-31 renal): > 100 µM
GI50 (OVCAR-5 ovarian): 3.61 µM
TGI (OVCAR-5 ovarian): > 25.2 µM
GI50 (MDA-MB-435): 2.67 µM
TGI (MDA-MB-435): 10.6 µM
GI50 (HOP-92 NSCLC): 4.85 µM
TGI (HOP-92 NSCLC): 37.7 µM
GI50 (OVCAR-3 ovarian): 1.48 µM
TGI (OVCAR-3 ovarian): 6.01 µM
GI50 (HCC-2998 colon): 3.2 µM
TGI (HCC-2998 colon): 23.8 µM
GI50 (DU-145 prostate): 1.14 µM
TGI (DU-145 prostate): 5.82 µM
GI50 (UACC-62 melanoma): 2.34 µM
TGI (UACC-62 melanoma): 12.8 µM
GI50 (K-562 leukemia): 1.18 µM
TGI (K-562 leukemia): 15.9 µM
GI50 (RXF 393 renal): 5.78 µM
TGI (RXF 393 renal): > 29.3 µM
GI50 (NCI/ADR-RES ovarian): > 100 µM
TGI (NCI/ADR-RES ovarian): > 100 µM
GI50 (OVCAR-4 ovarian): 5.09 µM
TGI (OVCAR-4 ovarian): > 31 µM
GI50 (NCI-H226 lung): 4.08 µM
TGI (NCI-H226 lung): 21.4 µM
GI50 (M14 melanoma): 3.35 µM
TGI (M14 melanoma): 14.7 µM
GI50 (HT29 colon): 1.72 µM
GI50 (MOLT-4 leukemia): 0.186 µM
TGI (MOLT-4 leukemia): 1.8 µM
GI50 (TK-10 renal): 3.23 µM
TGI (TK-10 renal): 22.4 µM
GI50 (NCI-H23 lung): 1.92 µM
TGI (NCI-H23 lung): 8.95 µM
GI50 (786-0 renal): 1.91 µM
TGI (786-0 renal): 14.7 µM
GI50 (CAKI-1 renal): 3.38 µM
TGI (CAKI-1 renal): 22.9 µM
GI50 (KM12 colon): 3.41 µM
TGI (KM12 colon): 17.8 µM
GI50 (SN12C renal): 2.5 µM
TGI (SN12C renal): 64.7 µM
GI50 (NCI-H460 lung): 2.08 µM
TGI (NCI-H460 lung): > 42.6 µM
GI50 (SK-OV-3 ovarian): 12.1 µM
TGI (SK-OV-3 ovarian): > 100 µM
GI50 (PC-3 prostate): 5.62 µM
TGI (PC-3 prostate): > 55.5 µM
GI50 (OVCAR-8 ovarian): 1.46 µM
TGI (OVCAR-8 ovarian): 11.2 µM
GI50 (BT-549 breast): 3.09 µM
TGI (BT-549 breast): 15 µM
GI50 (SNB-75 CNS): 0.277 µM
TGI (SNB-75 CNS): 9.47 µM
GI50 (MALME-3M melanoma): 0.699 µM
TGI (MALME-3M melanoma): 5.75 µM
GI50 (MCF7 breast): 0.434 µM
GI50 (U251 CNS): 1.85 µM
TGI (U251 CNS): > 100 µM
GI50 (HOP-62 NSCLC): 2.8 µM
TGI (HOP-62 NSCLC): 20.5 µM
GI50 (HS 578T breast): 3.07 µM
TGI (HS 578T breast): 15.7 µM
GI50 (HCT-116 colon): 0.831 µM
TGI (HCT-116 colon): 2.19 µM
GI50 (HL-60(TB) leukemia): 1.14 µM
TGI (HL-60(TB) leukemia): 15.6 µM
GI50 (RPMI-8226 leukemia): 1.22 µM
TGI (RPMI-8226 leukemia): 3.44 µM
GI50 (SW-620 colon): 2.13 µM
TGI (SW-620 colon): 43.8 µM
